PubChem BioAssay (NCI)
Several values for one entry are separate records, joined by “and”; a condition that tells them apart may be missing. Identical values can stand only once.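 Tested at 5 concentrations; 48 h exposure; 96-well plates; endpoints linearly interpolated, else capped at highest concentration. The concentration for 50% growth inhibition is given as GI50. TGI is the concentration that stops growth completely.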

What was measured:
Test in all cases: NCI-60 cell line screen, 48 h
NCI-H23 lung = system: NCI-H23 lung
SK-MEL-2 melanoma = system: SK-MEL-2 melanoma
SF-539 CNS = system: SF-539 CNS
SNB-75 CNS = system: SNB-75 CNS
HCT-15 colon = system: HCT-15 colon
OVCAR-5 ovarian = system: OVCAR-5 ovarian
MOLT-4 leukemia = system: MOLT-4 leukemia
OVCAR-8 ovarian = system: OVCAR-8 ovarian

Structure (SMILES) | TGI (NCI-H23 lung) | TGI (SK-MEL-2 melanoma) | TGI (SF-539 CNS) | TGI (SNB-75 CNS) | TGI (HCT-15 colon) | TGI (OVCAR-5 ovarian) | TGI (MOLT-4 leukemia) | TGI (OVCAR-8 ovarian) | GI50 (NCI-H23 lung) | GI50 (SK-MEL-2 melanoma) | GI50 (MOLT-4 leukemia) | GI50 (SF-539 CNS) | GI50 (SNB-75 CNS) | GI50 (OVCAR-5 ovarian) | GI50 (OVCAR-8 ovarian) | GI50 (HCT-15 colon)
CCCCOC(=O)NC(=O)c1cn(CCSCCOC(=O)NCCCCCCNC(=O)OCCSCCn2cc(C(=O)NC(=O)OCCCC)c(=O)[nH]c2=O)c(=O)[nH]c1=O | 94.5 µM | > 100 µM | > 100 µM | > 100 µM | > 100 µM | > 100 µM |  |  |  |  |  |  |  |  |  | 
Fc1ccc(C2SCc3nc4ccccc4n32)cc1 (stereo unspecified) | > 100 µM | > 100 µM | > 100 µM | 9.55 µM | > 100 µM | 99.4 µM | > 100 µM | > 100 µM |  |  |  |  |  |  |  | 
CCN(c1ccc(Br)cc1)c1c(Br)c(=O)nc2ccccn12 | > 100 µM | > 100 µM | > 100 µM | > 100 µM | > 100 µM | > 100 µM | > 100 µM | > 100 µM |  |  |  |  |  |  |  | 
O=C(OCC1CO1)c1cccs1 (stereo unspecified) | > 100 µM | > 100 µM |  | > 100 µM | > 100 µM | > 100 µM | > 100 µM | > 100 µM |  |  |  |  |  |  |  | 
C1OC1CO[C@@H]1CO[C@H]2[C@@H]1OC[C@H]2OCC1CO1 (stereo partly specified) | > 100 µM | > 100 µM | > 100 µM | > 100 µM | > 100 µM | > 100 µM | > 100 µM | > 100 µM |  |  |  |  |  |  |  | 
CN1CC(C(=O)C2C(=O)c3ccccc3C2=O)C(=O)C(=O)C(C(=O)C2C(=O)c3ccccc3C2=O)C1 (stereo unspecified) | > 100 µM | > 100 µM | > 100 µM | > 100 µM | > 100 µM | > 100 µM | > 100 µM | > 100 µM |  |  |  |  |  |  |  | 
CCN(CCCl)CCCNc1c2ccccc2nc2ccc(OC)cc12 |  |  |  |  | 1.86 µM |  |  | 1.63 µM | 382 µM | 587 µM | 15.7 µM | 421 µM | 532 µM | 286 µM |  | 
CC(=O)CCCCO | > 100 µM | > 100 µM | > 100 µM | > 100 µM | > 100 µM | > 100 µM | > 100 µM | > 100 µM |  |  |  |  |  |  |  | 
NC(N)=NNC(=O)CCCCCCCC(=O)NN=C(N)N | > 100 µM | > 100 µM | > 100 µM |  | 34.1 µM | > 100 µM |  |  |  |  |  |  |  |  |  | 
CC(C)(C)C(=O)ON1N=NC2C3CC(OCc4ccccc4)(OCc4ccccc4)C(O3)C21 (stereo unspecified) | 43.4 µM | 34.3 µM | 31 µM | 69.5 µM | 56.3 µM | > 100 µM | 32.2 µM |  |  |  |  |  |  |  |  | 
O=C(C(=O)N1CC2C=CC1CC2)c1c[nH]c2ccccc12 (stereo unspecified) |  | > 100 µM | > 100 µM | > 100 µM | > 100 µM | > 100 µM | > 100 µM | > 100 µM |  |  |  |  |  |  |  | 
CC(=O)OC1(C)C(=O)OC1(C)C(C)=O (stereo unspecified) | > 100 µM | > 100 µM | > 100 µM | > 100 µM | > 100 µM | > 100 µM | > 100 µM | > 100 µM |  |  |  |  |  |  |  | 
NC(=O)C(c1ccccc1)N1CCOCC1 (stereo unspecified) | > 100 µM | > 100 µM | > 100 µM | > 100 µM | > 100 µM | > 100 µM | > 100 µM | > 100 µM |  |  |  |  |  |  |  | 
CC(=O)OCC1OC(OC2CC3C(C)(C)C(O)CC[C@]3(C)C3CCC45CC4(CC[C@H]5C(C)CC(O)C4OC4(C)C)[C@]23C)C(O)C(O)C1O (stereo partly specified) | 16.5 µM and 27.5 µM | 12.1 µM and 8.67 µM | 15.3 µM and 18.7 µM | 15 µM and 26.6 µM | 15.3 µM and 27.6 µM | 16.1 µM and 29.2 µM | 2.34 µM and 7.26 µM | 14.4 µM and 23.8 µM | 12.2 µM | 2.46 µM | 3.01 µM | 6.32 µM | 13.7 µM | 15.8 µM | 8.97 µM | 14.2 µM
O=C(CC(=O)N1N=C(N2c3ccccc3Sc3ccccc32)CC1c1ccccc1)Nc1ccc(Cl)cc1 (stereo unspecified) | > 100 µM |  | > 100 µM | > 100 µM | > 100 µM | > 100 µM |  | > 100 µM |  |  |  |  |  |  |  | 
COc1cc2c(cc1O)CC13CCC(=O)N1CCc1cc(OC)c(O)c-2c13 (stereo unspecified) | > 68.1 µM |  | > 68.1 µM | > 68.1 µM | > 68.1 µM | > 68.1 µM | > 68.1 µM | > 68.1 µM |  |  |  |  |  |  |  | 
CC#CC1/C(=C\C(=O)OC)CCCC1O (stereo unspecified) | > 100 µM | > 100 µM | > 100 µM | > 100 µM | > 100 µM | > 100 µM | > 100 µM | > 100 µM |  |  |  |  |  |  |  | 
Cc1cc(NS(=O)(=O)c2ccc(NC(=O)c3cccc4c(Nc5ccc(S(=O)(=O)N=C(N)N)cc5)c5ccccc5nc34)cc2)no1 | > 100 µM |  | > 100 µM | > 100 µM | > 100 µM | > 100 µM | > 100 µM | > 100 µM |  |  |  |  |  |  |  | 
CCOC(=O)C1SC(=Nc2ccc(Cl)c(Cl)c2)N=C1C (stereo unspecified) | > 100 µM | > 100 µM | > 100 µM | 58.9 µM | > 100 µM | > 100 µM | > 100 µM | > 100 µM |  |  |  |  |  |  |  | 
CC1=CCC23C(C1)OC(Br)(C=CC2(C)O)C3(C)C (stereo unspecified) | > 100 µM | > 100 µM | > 100 µM | > 100 µM |  | > 100 µM |  | > 100 µM |  |  |  |  |  |  |  | 
c1ccc2c(c1)[nH]c1cnc3c4cccnc4[nH]c3c12 | 62.1 µM |  | 44.7 µM | 32.6 µM | 31.9 µM | 40.3 µM | 49.3 µM | 32 µM |  |  |  |  |  |  |  | 
